In brackets after ≈: the same amount, converted by molar mass.
How the values were obtained:
Assay type in all cases: physicochemical
[1] = UV/vis: λmax and ε in CH2Cl2 by UV spectrophotometer; settings: dissolved in CH2Cl2
Protocol: λmax (lambda max) and ε (epsilon) values of the compounds of formula (I) are determined dissolved in CH2Cl2 using an UV spectrophotometer. These values are obtained by balancing the measurements performed on compound solutions at three different concentrations.

[2] = Decomposition point (DP) by DSC; settings: sealed aluminum pan, 40 to 400°C, 10°C/min, nitrogen
Protocol: The decomposition point (DP) is determined using a TA Instruments DSC Q100 apparatus, the compound being incorporated into a sealed aluminum pan. Analysis conditions are as following: Temperature range from 40 to 400°C, heating rate 10°C/min, nitrogen flow of 50 ml/min. Values are determined by single measurement.

[3] = Solubility in organic solvents; settings: for Solubility in Dowanol PMA: Dowanol PMA (CH3COO2CH(CH3)CH2OCH3)

Row | Structure (SMILES) | εmax [1] [L/mol/cm] | λmax [1] [nm] | DP (decomposition point) [2] [°C] | Solubility in xylene [3] [mg/mL] | Solubility in Dowanol PMA [3] [mg/mL]
1 | CCCCCCCCCCCCCCCCOc1c(-c2nc3ccccc3c(=O)o2)sc2ccccc12 [(Id)] | 31900 | 341 | 384 | 100 (≈ 192 mM) | 
2 | CCCCC(CC)COc1c(-c2nc3ccccc3c(=O)o2)sc2ccccc12 (stereo not drawn) [(Ib)] | 26200 | 341 | 385 | > 100 | > 50
3 | O=c1oc(-c2sc3ccccc3c2Cl)nc2ccccc12 [(Ij)] | 29000 | 338 | ≥ 390 | < 5 | 
4 | CCCCCCCCCCCCOc1c(-c2nc3ccccc3c(=O)o2)sc2ccccc12 [(Ic)] | 21800 | 342 | 381 | 120 (≈ 259 mM) | 
5 | CCCCCCCCCCCc1c(-c2nc3ccccc3c(=O)o2)sc2ccc(C)cc12 [(Ie)] | 25900 | 343 | ≥ 400 | 40 (≈ 89.4 mM) | 
6 | O=C(Oc1c(-c2nc3ccccc3c(=O)o2)sc2ccccc12)c1ccccc1 [(Ii)] | 25500 | 338 | ≥ 400 | < 10 | 
7 | CCCC(=O)Oc1c(-c2nc3ccccc3c(=O)o2)sc2ccccc12 [(Ig)] | 26400 | 337 | 352 | < 10 | 
8 | CC(=O)Oc1c(-c2nc3ccccc3c(=O)o2)sc2ccccc12 [(If)] | 28700 | 337 | 351 | < 10 | 
9 | CCCCCCCCOc1c(-c2nc3ccccc3c(=O)o2)sc2ccccc12 [(Ia)] | 26000 | 341 | 370 | > 100 | > 50
10 | CCCCC(CC)C(=O)Oc1c(-c2nc3ccccc3c(=O)o2)sc2ccccc12 (stereo not drawn) [(Ih)] | 24100 | 337 | 375 | 10 (≈ 23.7 mM) | 

From EP1972624A1, “Benzoxazinones and their use as ultraviolet light absorbers” (Clariant International Ltd., priority 2007, dated 2008)
